# Measurements as given in patent publication US9562033B2, “Inhibitors of viral replication, their process of preparation and their therapeutical uses” (LABORATOIRE BIODIM, priority 2012, dated 2017).
# pEC50: −log10 of the molar value.
# System: NL4-3 strain of HIV-1
# Test: HIV-1 replication inhibition: cyto-protection of MT4 cells infected with NL4-3 virus (CellTiter-Glo viability assay)
# Format: cell-based
# Details: Human immunodeficiency virus 1, NL43, 120 h, concentration leading to 50% of cyto-protection, 5 days incubation
# Description: The antiviral activity, particularly against HIV, of compounds according to the invention is evaluated by the protocol described below.
# Preparation of Virus Stock of the NL4-3 Strain of HIV-1
# The virus was prepared as described in Lopez et al (Lopez et al, Proc Natl Acad Sci USA., 2006, 103(40):14947-52, by transfecting 2×10^6 293 T cells (CRL-1573, ATCC) with following modifications: 6 μg of NL4-3 proviral DNA molecular clone were mixed with Fugene 6 transfection reagent from Roche, and used according to manufacturer's instructions. Forty eight hours later, transfected cell supernatants were harvested, filtered through 0.45-μm-pore-size filters, quantified for HIV-1 p24 antigen by using a Innotest HIV antigen mAb assay (Ingen) according to manufacturer's instructions, and used in infection experiments.
# Preparation of Compounds:
# Serial dilutions of compounds to be tested were prepared in complete RPMI medium from 10 mM DMSO stock solutions, and distributed in a volume of 20 µl in 96 well Falcon 353072 Microtest™ tissue culture plate, in order to get 0.5% DMSO final concentration in each well, after the addition of infected cells. Control wells contained also 0.5% DMSO final concentration but no compound.
# MT4 cells (from the NIH AIDS Research and Reference Reagent Program) in RPMI complete medium were counted (10×10^6 cells per well in Falcon 353047 Multiwell™ 24 well) and infected for 2 hours at 37°, at a multiplicity of infection (moi) of 0.0001-0.00001. Cells were then centrifuged 3 min at 3000 rpm, and washed two times in 1 ml PBS to remove viruses that have not entered in cells. Infected cells were resuspended in complete RPMI at 1.25×10^6 cells/ml, and 80 µl of infected cells were distributed in each well containing compounds to be tested or control wells. The plates were then incubated at 37° for 5 days.
# Assay Used to Measure the Inhibition of HIV Replication by the Compounds
# (according to Gregg S. Jones et al., Antimicrobial Agents and Chemotherapy, 2009, 53 (3): 1194-1203).
# After 5 days of incubation, […] of CellTiter-Glo reagent (Promega Biosciences, Inc., Madison Wis., USA) were added to each well. Cell lysis was carried out at room temperature during 10 min, 150 μl of lysates were transferred in Packard Optiplate 96 well, and luminescence was read on a Fluoroskan (Thermo Scientific).
row,Compound,pEC50
1,"Cc1sc(-c2ccccc2)c(-c2ccc3c(c2)CCCO3)c1C(OC(C)(C)C)C(=O)O (centres unmarked) [Example 1, 2-(tert-butoxy)-2-[4-(3,4-dihydro-2H-1-benzopyran-6-yl)-2-methyl-5-phenylthiophen-3-yl]acetic acid]",6.59
2,"Cc1sc(-c2ccc(F)cc2)c(-c2ccc3c(c2)CCCO3)c1C(OC(C)(C)C)C(=O)O (centres unmarked) [Example 2, 2-(tert-butoxy)-2-[4-(3,4-dihydro-2H-1-benzopyran-6-yl)-5-(4-fluorophenyl)-2-methylthiophen-3-yl]acetic acid]",6.72
3,"Cc1sc(-c2ccncc2)c(-c2ccc3c(c2)CCCO3)c1C(OC(C)(C)C)C(=O)O (centres unmarked) [Example 3, 2-(tert-butoxy)-2-[4-(3,4-dihydro-2H-1-benzopyran-6-yl)-2-methyl-5-(pyridin-4-yl)thiophen-3-yl]acetic acid]",7.00
4,"Cc1sc(-c2cnc3c(c2)CCCO3)c(-c2ccc3c(c2)CCCO3)c1C(OC(C)(C)C)C(=O)O (centres unmarked) [Example 4, (tert-butoxy)[4-(3,4-dihydro-2H-1-benzopyran-6-yl)-2-methyl-5-{2H,3H,4H-pyrano[2,3-b]pyridin-6-yl}thiophen-3-yl]acetic acid]",6.74
5,"Cc1sc(-c2ccncc2)c(C2=CCC(C)(C)CC2)c1C(OC(C)(C)C)C(=O)O (centres unmarked) [Example 5, 2-(tert-butoxy)-2-[4-(4,4-dimethylcyclohex-1-en-1-yl)-2-methyl-5-(pyridin-4-yl)thiophen-3-yl]acetic acid]",7.39
6,"Cc1sc(-c2ccncc2)c(C2=CCC(C(C)C)CC2)c1C(OC(C)(C)C)C(=O)O (centres unmarked) [Example 6, 2-(tert-butoxy)-2-{2-methyl-4-[4-(propan-2-yl)cyclohex-1-en-1-yl]-5-(pyridin-4-yl)thiophen-3-yl}acetic acid]",6.80
7,Cc1sc(-c2cnc3c(c2)CCCO3)c(C2=CCC(C)(C)CC2)c1C(OC(C)(C)C)C(=O)O (centres unmarked) [Example 7],7.09
8,"Cc1sc(-c2cccnc2)c(-c2ccc3c(c2)CCCO3)c1C(OC(C)(C)C)C(=O)O (centres unmarked) [Example 8, 2-(tert-butoxy)-2-[4-(3,4-dihydro-2H-1-benzopyran-6-yl)-2-methyl-5-(pyridin-3-yl)thiophen-3-yl)acetic acid]",6.57
9,"Cc1sc(-c2ccncc2)c(C2=CCC(C)CC2)c1C(OC(C)(C)C)C(=O)O (centres unmarked) [Example 10, 2-(tert-butoxy)-2-[2-methyl-4-(4-methylcyclohex-1-en-1-yl)-5-(pyridin-4-yl)thiophen-3-yl]acetic acid]",6.85
10,"Cc1sc(-c2ccncc2)c(C2=CCC(C)(C)CC2)c1[C@H](OC(C)(C)C)C(=O)O [Example 11, (2S)-2-(tert-butoxy)-2-[4-(4,4-dimethylcyclohex-1-en-1-yl)-2-methyl-5-(pyridin-4-yl)thiophen-3-yl]acetic acid]",7.49
11,"Cc1sc(-c2ccncc2)c(C2=CCC3(CC2)CC3)c1C(OC(C)(C)C)C(=O)O (centres unmarked) [Example 12, 2-(tert-butoxy)-2-[2-methyl-5-(pyridin-4-yl)-4-{spiro[2,5]oct-5-en-6-yl}thiophen-3-yl]acetic acid]",6.89
12,"Cc1sc(-c2ccnc(F)c2)c(-c2ccc3c(c2)CCCO3)c1C(OC(C)(C)C)C(=O)O (centres unmarked) [Example 13, 2-(tert-butoxy)-2-[4-(3,4-dihydro-2H-1-benzopyran-6-yl)-5-(2-fluoropyridin-4-yl)-2-methylthiophen-3-yl) acetic acid]",6.82
13,"Cc1cc(-c2sc(C)c(C(OC(C)(C)C)C(=O)O)c2-c2ccc3c(c2)CCCO3)ccn1 (centres unmarked) [Example 14, 2-(tert-butoxy)-2-[4-(3,4-dihydro-2H-1-benzopyran-6-yl)-2-methyl-5-(2-methylpyridin-4-yl)thiophen-3-yl]acetic acid]",6.32
14,"Cc1sc(-c2ccnc3ccccc23)c(-c2ccc3c(c2)CCCO3)c1C(OC(C)(C)C)C(=O)O (centres unmarked) [Example 15, 2-(tert-butoxy)-2-[4-(3,4-dihydro-2H-1-benzopyran-6-yl)-2-methyl-5-(quinolin-4-yl)thiophen-3-yl]acetic acid]",6.39
15,"Cc1sc(-c2ccoc2)c(-c2ccc3c(c2)CCCO3)c1C(OC(C)(C)C)C(=O)O (centres unmarked) [Example 16, 2-(tert-butoxy)-2-[4-(3,4-dihydro-2H-1-benzopyran-6-yl)-5-(furan-3-yl)-2-methylthiophen-3-yl]acetic acid]",6.09
16,"Cc1sc(-c2ccnc(OCc3ccccc3)c2)c(-c2ccc3c(c2)CCCO3)c1C(OC(C)(C)C)C(=O)O (centres unmarked) [Example 17, 2-{5-[2-(benzyloxy)pyridin-4-yl]-4-(3,4-dihydro-2H-1-benzopyran-6-yl)-2-methylthiophen-3-yl}-2-(tert-butoxy)acetic acid]",6.19
17,"Cc1sc(-c2cncnc2)c(-c2ccc3c(c2)CCCO3)c1C(OC(C)(C)C)C(=O)O (centres unmarked) [Example 18, 2-(tert-butoxy)-2-[4-(3,4-dihydro-2H-1-benzopyran-6-yl)-2-methyl-5-(pyrimidin-5-yl)thiophen-3-yl]acetic acid]",6.59
18,"Cc1sc(-c2ccc(=O)n(C)c2)c(-c2ccc3c(c2)CCCO3)c1C(OC(C)(C)C)C(=O)O (centres unmarked) [Example 19, 2-(tert-butoxy)-2-[4-(3,4-dihydro-2H-1-benzopyran-6-yl)-2-methyl-5-(1-methyl-6-oxo-1,6-dihydropyridin-3-yl)thiophen-3-yl]acetic acid]",6.37
19,"Cc1sc(-c2ccsc2)c(-c2ccc3c(c2)CCCO3)c1C(OC(C)(C)C)C(=O)O (centres unmarked) [Example 20, 2-(tert-butoxy)-2-[4-(3,4-dihydro-2H-1-benzopyran-6-yl)-2-methyl-5-(thiophen-3-yl)thiophen-3-yl]acetic acid]",6.66
20,"CC(=O)NCc1ccc(-c2sc(C)c(C(OC(C)(C)C)C(=O)O)c2-c2ccc3c(c2)CCCO3)cc1 (centres unmarked) [Example 21, 2-(tert-butoxy)-2-[4-(3,4-dihydro-2H-1-benzopyran-6-yl)-5-[4-(acetamidomethyl)phenyl]-2-methylthiophen-3-yl]acetic acid]",6.24
21,"Cc1sc(-c2ccc(C(N)=O)cc2)c(-c2ccc3c(c2)CCCO3)c1C(OC(C)(C)C)C(=O)O (centres unmarked) [Example 22, 2-(tert-butoxy)-2-[5-(4-carbamoylphenyl)-4-(3,4-dihydro-2H-1-benzopyran-6-yl)-2-methylthiophen-3-yl]acetic acid]",6.52
22,"Cc1sc(-c2cccs2)c(-c2ccc3c(c2)CCCO3)c1C(OC(C)(C)C)C(=O)O (centres unmarked) [Example 23, 2-(tert-butoxy)-2-[4-(3,4-dihydro-2H-1-benzopyran-6-yl)-2-methyl-5-(thiophen-2-yl)thiophen-3-yl]acetic acid]",6.77
23,"Cc1sc(-c2cnn(C)c2)c(C2=CCC(C)(C)CC2)c1C(OC(C)(C)C)C(=O)O (centres unmarked) [Example 24, 2-(tert-butoxy)-2-[4-(4,4-dimethylcyclohex-1-en-1-yl)-2-methyl-5-(N-methylpyrazol-4-yl)thiophen-3-yl]acetic acid]",6.51
24,"Cc1sc(-c2cncnc2)c(C2=CCC(C)(C)CC2)c1C(OC(C)(C)C)C(=O)O (centres unmarked) [Example 25, 2-(tert-butoxy)-2-[4-(4,4-dimethylcyclohex-1-en-1-yl)-2-methyl-5-(pyrimidin-5-yl)thiophen-3-yl]acetic acid]",6.72
25,"Cc1sc(-c2cnn(C)c2)c(C2=CCC(C(C)C)CC2)c1C(OC(C)(C)C)C(=O)O (centres unmarked) [Example 26, 2-(tert-butoxy)-2-{2-methyl-4-[4-(propan-2-yl)cyclohex-1-en-1-yl]-5-(N-methylpyrazol-4-yl)thiophen-3-yl}acetic acid]",6.08
26,"Cc1sc(-c2ccc(C(N)=O)cc2)c(C2=CCC(C)(C)CC2)c1C(OC(C)(C)C)C(=O)O (centres unmarked) [Example 27, 2-(tert-butoxy)-2-[5-(4-carbamoylphenyl)-4-(4,4-dimethylcyclohex-1-en-1-yl)-2-methylthiophen-3-yl]acetic acid]",7.05
27,"Cc1sc(-c2ccncc2)c(C2=CCC(F)(F)CC2)c1C(OC(C)(C)C)C(=O)O (centres unmarked) [Example 28, 2-(tert-butoxy)-2-[2-methyl-4-(4,4-difluorocyclohex-1-en-1-yl)-5-(pyridin-4-yl)thiophen-3-yl]acetic acid]",6.12
28,"CNC(=O)c1ccc(-c2sc(C)c(C(OC(C)(C)C)C(=O)O)c2C2=CCC(C)(C)CC2)cc1 (centres unmarked) [Example 29, 2-(tert-butoxy)-2-[4-(4,4-dimethylcyclohex-1-en-1-yl)-2-methyl-5-(N-methyl-4-aminocarbonylphenyl)thiophen-3-yl]acetic acid]",7.05
29,Cc1sc(-c2ccc(=O)n(C)c2)c(C2=CCC(C)(C)CC2)c1C(OC(C)(C)C)C(=O)O (centres unmarked) [Example 30],7.15
